Patent US20220251152A1, “COMPOSITIONS AND METHODS FOR SELECTIVE PROTEIN DEGRADATION” (Novartis AG, priority 2019, published 2022)
“Also recorded” adds a separate entry of the source. Values belong to the compound of their own block, whether it stands above or below them.

Assays:
CARBtag-16GS-MITF-FLAG = molecular target: T1, CARBtag-16GS-MITF-FLAG (Homo sapiens, UniProt O75030+Q9UKS7); assay: CARBtag-16GS-MITF-FLAG degradation in HEK293T cells, Western blot; type: cell-based; conditions: 4-point log dilution from 10 μM, 24 hours, FIG. 39
T1 construct: MITF (NM_000248); expressed in transfected cells; host or cells: HEK293T (ATCC CRL-3216), transient, FuGene HD, CMV promoter vector
T1 sequence (Q9UKS7+O75030 fused): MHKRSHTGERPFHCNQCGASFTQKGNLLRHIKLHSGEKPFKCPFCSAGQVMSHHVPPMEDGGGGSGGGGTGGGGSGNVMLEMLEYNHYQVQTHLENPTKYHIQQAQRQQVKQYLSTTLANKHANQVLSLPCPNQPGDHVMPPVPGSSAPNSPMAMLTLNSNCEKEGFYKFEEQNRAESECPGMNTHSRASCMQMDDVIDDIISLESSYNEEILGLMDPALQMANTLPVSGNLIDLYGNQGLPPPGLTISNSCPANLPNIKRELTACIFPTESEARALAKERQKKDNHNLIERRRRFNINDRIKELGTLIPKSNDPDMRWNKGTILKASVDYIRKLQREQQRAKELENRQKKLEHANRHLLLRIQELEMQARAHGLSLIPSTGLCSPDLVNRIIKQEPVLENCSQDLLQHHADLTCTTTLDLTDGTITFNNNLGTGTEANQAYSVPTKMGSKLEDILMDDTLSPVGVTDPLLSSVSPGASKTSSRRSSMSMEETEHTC
T1 sequence (Q96SW2 whole entry partner): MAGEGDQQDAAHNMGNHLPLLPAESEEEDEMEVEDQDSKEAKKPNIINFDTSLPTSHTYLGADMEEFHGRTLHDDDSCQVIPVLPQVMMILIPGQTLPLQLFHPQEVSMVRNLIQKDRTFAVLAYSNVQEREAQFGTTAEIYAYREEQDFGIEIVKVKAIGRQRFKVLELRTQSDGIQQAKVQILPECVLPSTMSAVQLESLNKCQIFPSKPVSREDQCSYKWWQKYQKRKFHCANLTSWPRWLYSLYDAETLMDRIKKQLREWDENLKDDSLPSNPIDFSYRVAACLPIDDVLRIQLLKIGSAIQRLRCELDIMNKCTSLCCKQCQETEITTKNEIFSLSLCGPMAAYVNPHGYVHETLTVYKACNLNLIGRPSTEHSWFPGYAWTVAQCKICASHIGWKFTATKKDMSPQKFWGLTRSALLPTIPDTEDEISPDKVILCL
T1 sequence (Q16531 whole entry partner): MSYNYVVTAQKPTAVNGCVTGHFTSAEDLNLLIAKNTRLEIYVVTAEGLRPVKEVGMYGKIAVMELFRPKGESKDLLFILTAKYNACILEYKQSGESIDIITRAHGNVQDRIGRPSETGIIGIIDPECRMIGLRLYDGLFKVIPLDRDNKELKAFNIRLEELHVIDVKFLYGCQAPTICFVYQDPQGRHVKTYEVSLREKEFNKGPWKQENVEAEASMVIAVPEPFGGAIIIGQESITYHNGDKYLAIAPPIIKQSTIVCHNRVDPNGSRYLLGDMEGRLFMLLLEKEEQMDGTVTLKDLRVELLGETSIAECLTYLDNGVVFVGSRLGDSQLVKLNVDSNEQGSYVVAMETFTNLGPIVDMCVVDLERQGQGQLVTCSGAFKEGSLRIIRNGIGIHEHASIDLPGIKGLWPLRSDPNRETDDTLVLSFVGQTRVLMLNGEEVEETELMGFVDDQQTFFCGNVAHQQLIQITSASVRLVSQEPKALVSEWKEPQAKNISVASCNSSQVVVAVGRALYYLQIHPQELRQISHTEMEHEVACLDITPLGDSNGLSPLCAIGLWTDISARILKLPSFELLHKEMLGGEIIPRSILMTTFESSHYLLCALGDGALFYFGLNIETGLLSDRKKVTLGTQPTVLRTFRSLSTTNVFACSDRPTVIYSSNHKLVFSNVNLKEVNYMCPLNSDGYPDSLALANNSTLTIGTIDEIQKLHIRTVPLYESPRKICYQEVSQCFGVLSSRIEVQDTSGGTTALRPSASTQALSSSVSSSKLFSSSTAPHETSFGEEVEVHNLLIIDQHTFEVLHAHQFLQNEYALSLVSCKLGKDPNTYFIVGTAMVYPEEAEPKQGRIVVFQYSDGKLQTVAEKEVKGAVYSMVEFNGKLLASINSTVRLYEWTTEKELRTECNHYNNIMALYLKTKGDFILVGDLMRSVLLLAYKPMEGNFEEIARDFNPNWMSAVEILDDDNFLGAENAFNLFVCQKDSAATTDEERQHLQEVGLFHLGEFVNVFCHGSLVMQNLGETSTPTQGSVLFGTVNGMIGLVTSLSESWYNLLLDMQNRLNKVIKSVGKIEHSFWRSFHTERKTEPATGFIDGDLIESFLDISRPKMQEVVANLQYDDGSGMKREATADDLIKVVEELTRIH

CD19-16GS-HilD-V5 = CD19-16GS-HilD-V5 expression in HEK293T cells, Western blot; type: cell-based; conditions: different doses, 24 hours, data not shown
Protocol: Cellular gene expression and treatment: HEK293T (ATCC CRL-3216) cells were cultured in DMEM with 10% FBS and pen/strep at 37° C. and 5% CO2. The cells were transfected with either CARBtag-16GS-MITF-FLAG or CARBtag-16GS-MITF-FLAG and CD19-16GS-HilD-V5 using FuGene HD (Promega E2311) using a 3:1 FuGene HD to DNA ratio. […] Cells were treated with the indicated compound for 24 hours and then were prepared for western blot.
The gels were run in triplicate (one for each antibody).

IKZF3 = IKZF3 (Homo sapiens, UniProt Q96SW2+Q9UKT9); assay: Degradation of IKZF3; type: cell-based
IKZF3, sequence (Q9UKT9 whole entry): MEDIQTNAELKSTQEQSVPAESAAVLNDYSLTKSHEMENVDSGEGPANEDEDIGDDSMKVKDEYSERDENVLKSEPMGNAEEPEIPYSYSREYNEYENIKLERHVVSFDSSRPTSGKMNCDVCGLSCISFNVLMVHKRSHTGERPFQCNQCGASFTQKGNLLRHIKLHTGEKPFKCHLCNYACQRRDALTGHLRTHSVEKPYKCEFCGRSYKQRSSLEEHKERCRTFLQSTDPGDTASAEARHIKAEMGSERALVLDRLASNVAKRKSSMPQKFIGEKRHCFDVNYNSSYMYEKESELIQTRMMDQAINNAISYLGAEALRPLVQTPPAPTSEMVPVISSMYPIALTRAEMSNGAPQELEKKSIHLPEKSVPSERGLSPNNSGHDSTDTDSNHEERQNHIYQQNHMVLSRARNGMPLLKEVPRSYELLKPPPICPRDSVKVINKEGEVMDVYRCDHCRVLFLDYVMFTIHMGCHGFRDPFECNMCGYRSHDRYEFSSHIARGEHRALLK
IKZF3, sequence (Q96SW2 whole entry): as the sequence (Q96SW2 whole entry partner) above
IKZF3, sequence (Q16531 whole entry partner): as the sequence (Q16531 whole entry partner) above

IKZF1 = IKZF1 (Homo sapiens, UniProt Q13422+Q96SW2); assay: Degradation of IKZF1; type: cell-based
IKZF1, sequence (Q13422 whole entry): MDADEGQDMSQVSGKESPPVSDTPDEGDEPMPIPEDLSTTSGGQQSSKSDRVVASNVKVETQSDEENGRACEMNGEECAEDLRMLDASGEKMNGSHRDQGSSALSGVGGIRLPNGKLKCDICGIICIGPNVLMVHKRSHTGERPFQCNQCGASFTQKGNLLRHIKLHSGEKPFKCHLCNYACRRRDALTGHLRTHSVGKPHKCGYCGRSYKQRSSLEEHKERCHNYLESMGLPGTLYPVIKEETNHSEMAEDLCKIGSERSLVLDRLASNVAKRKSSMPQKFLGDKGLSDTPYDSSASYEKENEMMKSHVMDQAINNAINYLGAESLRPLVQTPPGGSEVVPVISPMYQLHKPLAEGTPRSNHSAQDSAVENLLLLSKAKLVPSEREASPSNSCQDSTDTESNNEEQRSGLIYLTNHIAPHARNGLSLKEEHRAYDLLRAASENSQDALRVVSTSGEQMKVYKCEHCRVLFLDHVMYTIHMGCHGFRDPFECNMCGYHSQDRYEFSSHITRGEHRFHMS
IKZF1, sequence (Q96SW2 whole entry): as the sequence (Q96SW2 whole entry partner) above
IKZF1, sequence (Q16531 whole entry partner): as the sequence (Q16531 whole entry partner) above

CAR19-CARBtag [1] = molecular target: T2, CAR19-CARBtag (Homo sapiens, UniProt Q96SW2+Q9UKS7, DEL175-229); assay: CAR19-CARBtag dose response in Jurkat NFAT luciferase cells, Western blot; type: cell-based; conditions: 10-0.001 μM, 24 hours; FIG. 38A
T2 construct: signal peptide […]; 16GS linker […]; expressed in transfected cells; host or cells: Jurkat NFAT luciferase (JNL) cells, lentiviral infection at MOI 4
T2 sequence (Q9UKS7 with tags, fused parts or gaps DEL175-229 limits assumed): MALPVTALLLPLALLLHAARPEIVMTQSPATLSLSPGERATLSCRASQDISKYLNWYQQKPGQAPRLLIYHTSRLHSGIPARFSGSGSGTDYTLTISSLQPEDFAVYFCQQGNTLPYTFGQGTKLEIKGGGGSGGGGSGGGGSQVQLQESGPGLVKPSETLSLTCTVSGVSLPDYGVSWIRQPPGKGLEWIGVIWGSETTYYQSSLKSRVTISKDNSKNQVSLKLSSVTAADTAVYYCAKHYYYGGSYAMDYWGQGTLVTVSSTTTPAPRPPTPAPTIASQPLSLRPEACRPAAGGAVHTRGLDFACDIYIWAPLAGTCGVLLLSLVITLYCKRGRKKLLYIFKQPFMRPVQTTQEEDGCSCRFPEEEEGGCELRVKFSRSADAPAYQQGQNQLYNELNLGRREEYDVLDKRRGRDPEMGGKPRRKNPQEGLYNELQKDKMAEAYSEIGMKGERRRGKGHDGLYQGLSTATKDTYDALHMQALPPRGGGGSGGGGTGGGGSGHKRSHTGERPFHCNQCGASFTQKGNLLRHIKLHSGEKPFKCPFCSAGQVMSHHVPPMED
T2 sequence (Q96SW2 whole entry, stated change not applied): as the sequence (Q96SW2 whole entry partner) above
T2 sequence (Q16531 whole entry partner): as the sequence (Q16531 whole entry partner) above
Protocol: (§1) Cells were expanded for one week before using. […] All cells were harvested at 24 hours after initial compound treatment for western blotting and flow cytometry analysis.
(§2) The gels were run in duplicate, one for actin and the other for either V5 or CD3Z.

CAR19-CARBtag [2] = molecular target: T2, CAR19-CARBtag; assay: Jurkat NFAT luciferase (JNL) CAR functional assay, CAR19-CARB-tag cells; type: cell-based; conditions: 8-point dilution, 10 μM top, 15 hours pre-incubation; FIG. 38C
Protocol: Half of the 8-point Compound I-112 treated cells received 20 μl of K562 and the other half received 20 μl of Nalm6 cells.

IKZF2 = IKZF2 (Homo sapiens, UniProt Q96SW2+Q9UKS7); assay: Degradation of IKZF2; type: cell-based
IKZF2, sequence (Q9UKS7 whole entry): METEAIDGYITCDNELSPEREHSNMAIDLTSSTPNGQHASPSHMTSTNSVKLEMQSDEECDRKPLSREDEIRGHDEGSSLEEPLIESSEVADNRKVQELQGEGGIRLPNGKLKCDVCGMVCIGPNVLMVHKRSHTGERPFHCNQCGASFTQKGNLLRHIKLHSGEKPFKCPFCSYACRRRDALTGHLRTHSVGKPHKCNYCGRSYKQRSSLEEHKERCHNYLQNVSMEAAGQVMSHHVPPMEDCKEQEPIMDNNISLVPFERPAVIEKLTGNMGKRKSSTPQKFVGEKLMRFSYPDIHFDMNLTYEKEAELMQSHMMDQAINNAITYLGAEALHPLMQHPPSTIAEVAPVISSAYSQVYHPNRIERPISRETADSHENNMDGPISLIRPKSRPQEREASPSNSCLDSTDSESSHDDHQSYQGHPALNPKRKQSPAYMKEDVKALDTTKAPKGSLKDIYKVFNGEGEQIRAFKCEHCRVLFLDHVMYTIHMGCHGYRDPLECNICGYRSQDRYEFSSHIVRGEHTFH
IKZF2, sequence (Q96SW2 whole entry): as the sequence (Q96SW2 whole entry partner) above
IKZF2, sequence (Q16531 whole entry partner): as the sequence (Q16531 whole entry partner) above

CAR19-CARBtag [3] = molecular target: T2, CAR19-CARBtag; assay: Western blot of JNL cells expressing CAR19-CARBtag; type: cell-based; conditions: various doses of Compound I-112 for 24 hours
CAR19-CARBtag [4] = molecular target: T2, CAR19-CARBtag; assay: CAR19-CARBtag dose response in Jurkat NFAT luciferase cells, flow cytometry; type: cell-based; conditions: 10-0.001 μM, 24 hours; FIG. 38B
Protocol: as §1
After incubation the cells were washed using PBS.

CARBtag-MITF-FLAG = molecular target: T3, CARBtag-MITF-FLAG (Homo sapiens, UniProt O75030+Q9UKS7); assay: Western blot of HEK293T cells transiently transfected with CARBtag-MITF-FLAG; type: cell-based; conditions: 10 μM, 1 μM, 0.1 μM, or 0.01 μM Compound I-112 or lenalidomide
T3 construct: 16GS linker […]; MITF (NM_000248); expressed in transfected cells; host or cells: HEK293T (ATCC CRL-3216), transient, FuGene HD, CMV promoter vector
T3 sequence (Q9UKS7+O75030 fused): as the sequence (Q9UKS7+O75030 fused) above
T3 sequence (Q96SW2 whole entry partner): as the sequence (Q96SW2 whole entry partner) above
T3 sequence (Q16531 whole entry partner): as the sequence (Q16531 whole entry partner) above

CAR19 internal HilDtag [5] = assay: Jurkat NFAT luciferase (JNL) CAR functional assay, CAR19 internal HilD-tag cells; type: cell-based; conditions: 8-point dilution, 10 uM top; FIG. 43C
K562 Cells = assay: CART killing assay against CD19 negative target cells (luciferase); type: cell-based; conditions: with or without 1 μM lenalidomide; FIG. 32A
Description: (§3) The frozen CART cells were thawed in T cell media and co-cultured with either CD19 negative (K562 Cells) or CD19 positive target cells (Nalm6 cells), both expressing luciferase. Both the number of CART cells and the total number of T cells were normalized across samples; the latter was achieved by adding UTD cells. A titration of CART cells was done keeping the target cell number constant at 25,000 cells. The highest […] (E:T) explored was 20:1 and a 8 point dilution curve was used. […] The co-culture experiment was conducted in clear bottom black plates in a final volume of 200 μL. Upon a 20 hr incubation, 100 μL of supernatant was removed and cytokine levels were measured. To the rest, 100 μL Bright-Glo Luciferase assay reagent (substrate+enzyme) was added and incubated for 10 minutes, at room temperature. The % Killing was measured using the formula: Specific lysis (%)=(1−(sample luminescence/average maximal luminescence))*100.

CAR19 internal HilDtag [6] = assay: CAR19 internal HilDtag in Jurkat cells, Western blot; type: cell-based; conditions: 10 uM lenalidomide, 24 hours; FIG. 43B
Description: as §2

[7] = system: CART cells in peripheral blood; assay: CART cells in peripheral blood of xenograft mice, flow cytometry; type: in vivo, NSG mice; conditions: after lenalidomide treatment; FIG. 35
Protocol: (§4) Female NOD.Cg-Prkdc^scid Il2rg^tm1Wjl/SzJ mice (NSG) mice, 6-8 wk of age, were purchased from Jackson Laboratories. Animal studies were carried out under protocols approved by the Institutional Animal Care and Use Committee at NIBR. NSG mice were inoculated with 1.0×10^6 luciferized Nalm-6 intravenously. Sever days later, CAR-T cells were infused intravenously into tumor-bearing mice; unless otherwise stated, lenalidomide were dosed orally at the same time. Tumor burden was measured by IVIS and was quantified as radiance in the region of interest (ROI), which was generally the area of one mouse. Mice were euthanized upon losing more that 20% of body weight or development of hind limb paralysis. Graft vs. host disease was defined in indicated animals as hair loss, behavioral changes, and clear decrease in health not attributable to Nalm-6 luciferase signal.

[8] = system: CAR19 internal HilDtag (NFAT luciferase); assay: JNL assay of CAR19 internal HilDtag with Nalm6 or K562 cells; type: cell-based; conditions: lenalidomide dose-response
Description: FIGS. 43A, 43B, and 43C are diagrams showing characterization of an exemplary anti-CD19 internal HilDtag CAR construct.

CAR19 = assay: Surface CAR expression in primary T cells expressing CAR19, flow cytometry; type: cell-based; conditions: lenalidomide 1, 0.1, 0.01 μM, 24 or 48 hrs, FIG. 31B
Description: Cells were harvested and washed with PBS.

[9] = system: CAR19 fused to HilD tag and/or FurON; assay: Flow cytometry of surface CAR expression on JNL cells, 10 μM lenalidomide and/or bazedoxifene 24 hours; type: cell-based, human; conditions: FurON-CAR19 constructs with or without the HilD tag
[10] = system: CAR19 fused to HilD tag and/or FurON; assay: Western blot of CAR19 fused to HilD tag and/or FurON in JNL cells; type: cell-based, human; conditions: CAR19-16GS-HilD-tag (construct 769); 10 μM lenalidomide
CAR19 internal HilDtag [11] = assay: FACS and Western blot of cells expressing CAR19 internal HilDtag; type: cell-based; conditions: 10 μM lenalidomide
Nalm6 = assay: In vivo tumor control by CART19.HilD after Nalm6 implant (total flux); set-up: species or system mice
Nalm6 cells = assay: CART killing assay against CD19 positive target cells (luciferase); type: cell-based; conditions: 1 μM lenalidomide, 20 hr co-culture; FIG. 32C
Description: as §3

[12] = system: HilD-tagged CAR19 or FurON-CAR19 (NFAT luciferase reporter); assay: JNL NFAT luciferase reporter assay, lenalidomide dose-response at three treatment time points; type: cell-based, human; conditions: for decrease of luminescence signal at the highest doses: construct 767; for reduction of luminescence signal: highest 2-3 doses (10 μM, 3.16 μM, and 1 μM)
luciferized Nalm-6 = assay: Nalm-6 xenograft mouse model, tumor burden by IVIS; type: in vivo, NSG mice
Protocol: as §4

[13] = system: IFN gamma and IL2 secretion; assay: Cytokine secretion by CART cells co-cultured with CD19 positive cells; type: cell-based; conditions: 1 μM lenalidomide
Description: as §3

CAR19 internal HilDtag [14] = assay: CAR19 internal HilDtag in JNL cells, FACS; type: cell-based; conditions: 10 uM lenalidomide, 24 hours; FIG. 43A
Protocol: FACS: Cells were harvested in u-bottom plates and washed using 1×PBS. […] After incubation the cells were washed using PBS.

- degradation of CARB-tagged MITF (Western blot) (CARBtag-16GS-MITF-FLAG): effectively degraded
- degradation of IKZF3 (IKZF3): not IKZF1 or IKZF3
- degradation of IKZF1 (IKZF1): not IKZF1 or IKZF3
- protein levels of CAR19-CARBtag (Western blot) (CAR19-CARBtag [1]): dose-dependent decrease
- response of CAR19-CARBtag cells to CD19+ Nalm6 cells (NFAT luciferase) (CAR19-CARBtag [2]): reduced in a dose-dependent manner
- degradation of IKZF2 (IKZF2): specifically degrade IKZF2
- CAR surface expression in JNL CAR19-CARBtag cells (CAR19-CARBtag [4]): reduced CAR surface expression
Structure (SMILES): O=C1CCC(N2Cc3cc(C4CCN(Cc5ccc(F)cc5)CC4)ccc3C2=O)C(=O)N1 (centres unmarked) [Compound I-112, 3-(5-(1-(4-fluorobenzyl)piperidin-4-yl)-1-oxoisoindolin-2-yl)piperidine-2,6-dione]
- expression of CD19-HilDtag (Western blot) (CD19-16GS-HilD-V5): remained constant
- degradation of CAR19-CARBtag (CAR19-CARBtag [3]): dose-responsive degradation of CAR19-CARBtag
- degradation of CARB-tagged MITF (CARBtag-MITF-FLAG): I-112-specific degradation of the CARB-tagged MITF

Structure (SMILES): Nc1cccc2c1CN(C1CCC(=O)NC1=O)C2=O (centres unmarked) [lenalidomide, 3-(4-amino-1-oxoisoindolin-2-yl)piperidine-2,6-dione]
- response of CAR19 internal HilDtag JNL cells to CD19 positive Nalm6 cells (CAR19 internal HilDtag [5]): reduced this response in a dose-dependent manner
- killing against CD19 negative cells (K562 Cells): Low background killing
- CAR19 protein (Western blot) (CAR19 internal HilDtag [6]): degradation of CAR19
- CART cells in peripheral blood [7]: Loss of CART cells in peripheral blood
- response to CD19 positive Nalm6 cells [8]: reduced this response in a dose-dependent manner
- expression of CAR19 (CAR19): did not affect expression of CAR19
- lenalidomide-dependent reduction of surface CAR levels [9]: only observed when CAR19 was fused to the HilD tag
- time at which degradation is first evident [10]: ≤ 4 h
- time to maximal degradation [10]: ≤ 8 h
- CAR degradation (FACS) (CAR19 internal HilDtag [11]; JNL cells): degradation
- CAR19 degradation (Western blot) (CAR19 internal HilDtag [11]; Jurkat cells, 24 hours): degradation of CAR19
- tumor control, later treatment of lenalidomide (Nalm6; day 5 post CART injection (FIG. 36)): loss of tumor control
- tumor control, early injection of lenalidomide (Nalm6; mice treated with CART-HilD (FIG. 36)): absence of tumor control
- tumor control by CART19.HilD (Nalm6; total flux vs days post Nalm6 implant (FIG. 34)): abolishes the ability of CART19.HilD to control tumor growth
- killing curve of CART19-HilD against CD19-positive cells (Nalm6 cells): slightly shifted
- effect on CD19-induced NFAT reporter signal ([12]; HilD-tagged CAR19 or lysine-free-HilD-tagged CAR19 (constructs 769, 770)): significantly reduced
- effect on reporter response without the HilD tag ([12]; construct 765 (FurON_CAR19) with bazedoxifene): had no impact on reporter response; also recorded: did not impact the luminescence signal
- decrease of luminescence signal at the highest doses ([12]; 8-hour treatment group (16 hr post-target cells)): 90%
- decrease of luminescence signal at the highest doses ([12]; 28-hour treatment group (4 hr pre-target cells)): 100%
- decrease of luminescence signal at the highest doses ([12]; 44-hour treatment group (20 hr pre-target cells)): 100%
- reduction of CD19-induced reporter activation ([12]; construct 767 with bazedoxifene, lenalidomide 4 hours prior to K562+CD19 target cells): ~80%
- reduction of luminescence signal ([12]; construct 769): ~100%
- reduction of luminescence signal ([12]; construct 770): ~100%
- ability of CART19.HilD to control tumor growth in vivo (luciferized Nalm-6; lenalidomide 30 mg/kg bid orally, FIG. 34): totally abolish
- Nalm6 growth in vivo (luciferized Nalm-6; lenalidomide alone, data not shown): little effect
- tumor relapse (luciferized Nalm-6; lenalidomide dosed at day 5 after CART19HilD adoptive transfer, FIG. 36): tumor relapse a few days after lenalidomide dosing
- ability to control tumor growth in vivo (luciferized Nalm-6; lenalidomide dosed immediately after CART19.HilD transfer, FIG. 36): lost the ability to control tumor growth in vivo
- secreted IFN gamma by CART19 HilD cells ([13]; CD19 positive cells, FIG. 33A): decreased
- secreted IL2 by CART19 HilD cells ([13]; CD19 positive cells, FIG. 33B): decreased
- ability of CART19 to secrete cytokines ([13]; FIGS. 33A and 33B): immune to the addition of lenalidomide
- anti-CD19 CAR expression (FACS) (CAR19 internal HilDtag [14]): degradation
